Test system: B16 melanocytes
Test: Inhibition of melanin synthesis in B16 melanocytes
Type: cell-based
Details: 0.5% w/v; 3 days; control = 100%
Procedure: To carry out the test, melanocytes (B16 cell line) were incubated for 3 days at 37° C./5% CO2 in a standard growth medium for cell cultures containing foetal calf serum (FCS). The growth medium was then replaced by a standard medium with which the substances to be tested were adjusted to different concentrations. After incubation for 3 days, the number of living cells was determined through the cell protein content (Bradford's method) and the content of synthesized melanin—recorded in the cell homogenizate at an optical density of 475 nm. The results are expressed in % against a control of pure cell culture medium.

`OC[C@H]1O[C@@H](Oc2ccc(O)cc2)[C@H](O)[C@@H](O)[C@@H]1O` [Arbutin] was tested, and the Cell protein content was 81% and the Melanin content was 35%.
